According to patent US11957766B2, “HNQO1-activatable fluorescent probe for imaging cancer cells in-vitro and in-vivo” (Texas Tech University System, priority 2019, dated 2024):

Experiments:
[1] = test system: A549 and NCI-H460 cancer cells, IMR 90 and HUVECs normal cells; assay: Cytotoxicity of NIR-ASM, resazurin reduction assay; format: cell-based, human; conditions: up to 100 μM, 72 h
Procedure: Assessment of NIR-ASM biocompatibility. Inspired by the excellent photophysical properties of NIR-ASM in monitoring the NQO1 activity in vitro, the inventors determined the biocompatibility of NIR-ASM both in vitro and in vivo before using for endogenous applications. […] Further, to evaluate NIR-ASM tolerability and toxicity in vivo, CD1 mice were grouped for the administration of vehicle (PEG:H2O:EtOH) alone or 5 mg/kg of NIR-ASM five times a week for five weeks. The average mouse weights were monitored as a surrogate marker to the toxicity.
Cell viability assays. NIR-ASM was evaluated for in vitro cytotoxicity in human cancer (A549 and H460) and normal (IMR90 and HUVECs) cell lines following a protocol of 72 h continuous drug exposure using resazurin reduction assay. The cell lines were grown in 96-well microtiter plates at a density of 5000 cells per well. The plates were incubated for 24 h prior to addition of NIR-ASM. Ten concentrations of NIR-ASM were evaluated in quadruplicate sets. Plates were incubated for a further 72 h and replaced with 20 μL resazurin 0.01% (w/v) containing the medium. After 2 h, the fluorescence was measured using a Tecan Reader (Infinite m200 Pro) at a 544 nm excitation and 590 nm emission.

[2] = test system: A549 and MDA-MB-231 tumors; assay: In vivo imaging of NQO1-positive (A549) and -negative (MDA-MB-231) xenografts in the same animal with NIR-ASM; parameters: species or system nude mice; conditions: intravenous, tumors of 200 mm^3
Procedure: Additionally, to validate the NQO1-specific activation of NIR-ASM to generate fluorescence, the inventors generated NQO1-positive (A549) and -negative (MDA-MB-231) xenografts in the same animal by injecting the corresponding tumor cells on the left and right flanks of the nude mice respectively. When tumors reached a volume of 200 mm^3, NIR-ASM was administered through intravenous injection and the animals were imaged using the In Vivo imager.
In vivo bioimaging. The animal study protocol was approved by the Institutional Animal Use and Care Committee (IACUC), Texas Tech University Health Sciences Center, Protocol number: 07050. All experimental protocols used in this study were approved by IACUC, Texas Tech University Health Sciences Center and all the methods were carried out according to the committee guidelines. Female athymic nude mice (nu/nu, 4-6 weeks) were purchased from Charles River Laboratories (Wilmington, MA, USA). BALB/c57 mice were provided by Dr. Constantinos Mikelis of our University. To establish A549 or MDA-MB-231 xenografts, a total of 5×10^6 cells (in 0.1 ml of serum-free media and Matrigel (1:1)) were subcutaneously injected into the flanks of the mice. […] All animals were monitored for activity, physical condition, body weight, and tumor growth. […] Fluorescence represented in log values of radiance is photons per second per square centimeter per steradian.

NQO1 = NQO1 (Homo sapiens, UniProt P15559); assay: Selectivity of NIR-ASM for NQO1 over other enzymes/substrates; format: biochemical; parameters: purchased Sigma-Aldrich D1515; conditions: 30 min; GSH, ALDH1A1, GGT, GPx, APE1, CBS, CTSL, GST-pi, NADH, NTR
Chain of NQO1 (P15559 whole entry): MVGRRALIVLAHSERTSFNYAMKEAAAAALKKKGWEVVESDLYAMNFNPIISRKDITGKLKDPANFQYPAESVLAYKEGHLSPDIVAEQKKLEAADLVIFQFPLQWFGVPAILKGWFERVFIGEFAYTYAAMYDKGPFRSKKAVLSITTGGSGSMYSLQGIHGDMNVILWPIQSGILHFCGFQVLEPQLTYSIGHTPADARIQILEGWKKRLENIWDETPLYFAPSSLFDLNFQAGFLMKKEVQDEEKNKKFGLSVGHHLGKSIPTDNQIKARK
Excerpt: Selectivity of NIR-ASM. The selectivity of NIR-ASM probe was studied by examining its reactivity towards various biomolecules and antioxidant enzymes such as the glutathione, aldehyde dehydrogenase 1, gamma-glutamyl transferase, glutathione peroxidase, apurinic/apyrimidinic endonuclease, cystathionine-β-synthase, cathepsin L, glutathione S-transferase, NADH alone and the combination of nitroreductase and NQO1.
Determination of NIR-ASM specificity towards NQO1. The specificity towards NQO1 was investigated by incubating NIR-ASM (10 μm) with various biologically relevant analytes such as glutathione (GSH, 1 mM), aldehyde dehydrogenase 1 (ALDH1A1, 2.5 μg/mL), gamma-glutamyl transferase (GGT, 10 U), glutathione peroxidase (GPx, 10 U), apurinic/apyrimidinic endonuclease (APE1, 10 U), cystathionine-β-synthase (CBS, 2 μg/mL), cathepsin L (CTSL, 2 μg/mL), glutathione S-transferase (GST-pi, 2 μg/mL), NADH (100 μM) alone and the combination of nitroreductase (NTR, 2 μg/mL) and NQO1 (2 μg/mL) for 30 min. Fluorescence spectra were analyzed to determine NIR-ASM specificity against NQO1.

[3] = test system: DAOY, T98G, and U87MG cells; assay: Fluorescence microscopy of NQ-DCP in hNQO1 positive cancer cells; format: cell-based, human
Procedure: Visualization of Cancer Cells by Fluorescence Imaging of hNQO1. […] The cytotoxicity of NQ-DCP was initially evaluated in cultured brain tumor (DAOY, T98G, and U87MG) and normal (astrocytes) cells to assess its biocompatibility using the resazurin reduction assay. […] Cells were incubated with NQ-DCP (10 μM) for 60 min, washed with PBS and were imaged under a fluorescence microscope.
Cell Culture, Fluorescence Imaging, and Flow Cytometry Analysis. Brain tumor cells and astrocytes were grown in Dulbecco's modified Eagle's (DMEM) medium containing 10% Fetal Bovine Serum and 1% penicillin/streptomycin in a humidified atmosphere of 5% CO2 at 37° C. For fluorescence imaging, initially, cells were seeded into 6-well plate and cultured overnight in respective media at 37° C. Media was replaced with fresh medium containing 10 μM NQ-DCP and incubated at 37° C. for 60 min and then the medium was replaced with PBS and live cells were imaged using a fluorescence microscope. For inhibitor study, cells were pretreated with NQO1 inhibitor ES936 (100 nM) for 6 h before adding the NQ-DCP. For determining endogenous hNQO1 activity in cancer cells using flow cytometry, about 10×10^4 cells were incubated with 10 μM of NQ-DCP for 60 min and were analyzed using flow cytometry.

Compound | cytotoxicity [1] | fluorescence signal, NQO1-positive A549 tumor [2] | fluorescence signal, NQO1 negative MDAMB-231 tumors [2] | selectivity for NQO1 over the other enzymes/substrates tested (NQO1) | fluorescence signal in cancer cells ([3]; 10 μM, 60 min) | cell permeability ([3]; inferred from intracellular activation)
CC1=C(C)C(=O)C(C(C)(C)CC(=O)Nc2ccc(/C=C/C3=CC(=C(C#N)C#N)CC(C)(C)C3)cc2)=C(C)C1=O [NIR-ASM, (E)-N-(4-(2-(3-(dicyanomethylene)-5,5-dimethylcyclohex-1-en-1-yl)vinyl)phenyl)-3-methyl-3-(2,4,5-trimethyl-3,6-dioxocyclohexa-1,4-dien-1-yl)butanamide] | not toxic | observed only from the A549 tumor | no signal was discernible | high selectivity | – | –
CC1=C(C)C(=O)C(C(C)(C)CC(=O)Oc2ccc(/C=C/C3=CC(=C(C#N)C#N)CC(C)(C)C3)cc2)=C(C)C1=O [NQ-DCP] | – | – | – | – | bright fluorescence signals | good cell permeability
